Paper PMC10663516 (Scientific Reports, 2023)
Where two headings read alike, the source gives them in different places.

What was measured:
LY0257/ABC = assay: DLBCL PDX model; assay type: in vivo, mouse; conditions: LY0257/ABC MyD88, 17 days, QD PO; TL-895 and ibrutinib 25 mg/kg, acalabrutinib 30 mg/kg
Procedure: (§1) All three compounds were formulated in a solution of 20% kleptose (hydroxypropyl β-cyclodextrin) in 50 mM citrate and administered QD PO during the treatment periods given for each model.
(§2) For mean values > 0: %ΔT/ΔC=endtumorvolumetreatment-starttumorvolumetreatment/endtumorvolumecontrol-starttumorvolumecontrol×100
(§3) For mean values ≤ 0 (i.e. regression): %ΔT/ΔC=endtumorvolumetreatment-starttumorvolumetreatment/starttumorvolumecontrol×100
(§4) The research use of patient material in PDX models at Crown Bioscience, XenoSTART and EPO-GmbH was approved by the local Institutional Ethical Review Boards and the patients provided written informed consent. Molecular analysis was performed on samples from each model using the EdgeSeq DLBCL Cell of Origin Assay (HTG Molecular Diagnostics, Tucson, AZ, USA) to confirm ABC-GCB DLBCL subtype.
(§5) Stock mice inoculated with human DLBCL cancer tissues were euthanized by progressive hypoxemia with CO2 and tumors were harvested. Tumor fragments were used at three different contract research organizations for xenotransplantation into different mouse strains for the following models: (1) 6-week-old female nude (NMRI:nu/nu) or CB17-SCID mice (Javier Labs, France): Ly12638, Ly11212, and Ly13005 (Experimental Pharmacology and Oncology Berlin-Buch GmbH [EPO-GmbH], Germany); (2) 6–8-week-old female BALB/c nude or NOD SCID mice (Beijing HFK Bioscience Co., Ltd. Beijing, China): LY0257, LY2214, LY3604, LY2298, LY2264, LY2318, and LY2345 (Crown Bioscience Inc, Taicang, China); and (3) 6–12-week-old female CB-17 SCID mice (CB17/Icr-Prkdc^scid/IcrIcoCrl Charles River Laboratories, Wilmington, MA, USA): ST118B, ST949B, ST359, ST949, ST2761B, ST2963, ST1361, ST2078, ST1735B, ST2902, and ST3497 (XenoSTART, San Antonio, TX, USA).
(§6) When the average tumor volume was within a pre-determined range (100–300 mm^3), mice were assigned to treatment groups to balance the mean starting tumor volumes (n = 5 for all models except LY13005, which was n = 3). […] Tumor volumes were recorded 2–3 times per week. Mean %∆T/∆C was calculated at the end of treatment as described above for MCL models.
(§7) Tumor volume was used as the measure of efficacy for statistical analyses of in vivo xenograft studies. Tumor volume data from individual studies were log-transformed and statistically analyzed using repeated measures analysis of covariance (RM-ANCOVA) to determine significant treatment effects, followed by post hoc Tukey’s test for multiple pairwise comparisons (all α = 0.05) using R software. Day 0 data were used only as covariates in the analyses because tumor measurements on that day were recorded before the first treatments were administered.

LY11212/GCB = assay: DLBCL PDX model; assay type: in vivo, mouse; conditions: 13 days, QD PO, TL-895 and ibrutinib 25 mg/kg, acalabrutinib 30 mg/kg
Procedure: as §1, §2, §3, §4, §5, §6, §7

LY12638/GCB = assay: DLBCL PDX model; assay type: in vivo, mouse; conditions: 25 days, QD PO, TL-895 and ibrutinib 25 mg/kg, acalabrutinib 30 mg/kg
Procedure: as §1, §2, §3, §4, §5, §6, §7

LY13005/ABC = assay: DLBCL PDX model; assay type: in vivo, mouse; conditions: 14 days, QD PO, TL-895 and ibrutinib 25 mg/kg, acalabrutinib 30 mg/kg
Procedure: as §1, §2, §3, §4, §5, §6, §7

LY2214/Unc = assay: DLBCL PDX model; assay type: in vivo, mouse; conditions: 17 days, QD PO, TL-895 and ibrutinib 25 mg/kg, acalabrutinib 30 mg/kg
Procedure: as §1, §2, §3, §4, §5, §6, §7

LY2264/ABC = assay: DLBCL PDX model; assay type: in vivo, mouse; conditions: LY2264/ABC MyD88, 25 days, QD PO; TL-895 and ibrutinib 25 mg/kg, acalabrutinib 30 mg/kg
Procedure: as §1, §2, §3, §4, §5, §6, §7

LY2298/ABC = assay: DLBCL PDX model; assay type: in vivo, mouse; conditions: LY2298/ABC MyD88, 16 days, QD PO; TL-895 and ibrutinib 25 mg/kg, acalabrutinib 30 mg/kg
Procedure: as §1, §2, §3, §4, §5, §6, §7

LY2318/ABC = assay: DLBCL PDX model; assay type: in vivo, mouse; conditions: 14 days, QD PO, TL-895 and ibrutinib 25 mg/kg, acalabrutinib 30 mg/kg
Procedure: as §1, §2, §3, §4, §5, §6, §7

LY2345/ABC = assay: DLBCL PDX model; assay type: in vivo, mouse; conditions: 17 days, QD PO, TL-895 and ibrutinib 25 mg/kg, acalabrutinib 30 mg/kg
Procedure: as §1, §2, §3, §4, §5, §6, §7

LY3604/ABC = assay: DLBCL PDX model; assay type: in vivo, mouse; conditions: 17 days, QD PO, TL-895 and ibrutinib 25 mg/kg, acalabrutinib 30 mg/kg
Procedure: as §1, §2, §3, §4, §5, §6, §7

ST118B/ABC = assay: DLBCL PDX model; assay type: in vivo, mouse; conditions: ST118B/ABC MyD88, 19 days, QD PO; TL-895 and ibrutinib 25 mg/kg, acalabrutinib 30 mg/kg
Procedure: as §1, §2, §3, §4, §5, §6, §7

ST1361/GCB = assay: DLBCL PDX model; assay type: in vivo, mouse; conditions: 11 days, QD PO, TL-895 and ibrutinib 25 mg/kg, acalabrutinib 30 mg/kg
Procedure: as §1, §2, §3, §4, §5, §6, §7

ST1735B/GCB = assay: DLBCL PDX model; assay type: in vivo, mouse; conditions: 29 days, QD PO, TL-895 and ibrutinib 25 mg/kg, acalabrutinib 30 mg/kg
Procedure: as §1, §2, §3, §4, §5, §6, §7

ST2078/GCB = assay: DLBCL PDX model; assay type: in vivo, mouse; conditions: 20 days, QD PO, TL-895 and ibrutinib 25 mg/kg, acalabrutinib 30 mg/kg
Procedure: as §1, §2, §3, §4, §5, §6, §7

ST23497/GCB = assay: DLBCL PDX model; assay type: in vivo, mouse; conditions: 17 days, QD PO, TL-895 and ibrutinib 25 mg/kg, acalabrutinib 30 mg/kg
Procedure: as §1, §2, §3, §4, §5, §6, §7

ST2761B/GCB = assay: DLBCL PDX model; assay type: in vivo, mouse; conditions: 24 days, QD PO, TL-895 and ibrutinib 25 mg/kg, acalabrutinib 30 mg/kg
Procedure: as §1, §2, §3, §4, §5, §6, §7

ST2902/GCB = assay: DLBCL PDX model; assay type: in vivo, mouse; conditions: 22 days, QD PO, TL-895 and ibrutinib 25 mg/kg, acalabrutinib 30 mg/kg
Procedure: as §1, §2, §3, §4, §5, §6, §7

ST2963/GCB = assay: DLBCL PDX model; assay type: in vivo, mouse; conditions: 13 days, QD PO, TL-895 and ibrutinib 25 mg/kg, acalabrutinib 30 mg/kg
Procedure: as §1, §2, §3, §4, §5, §6, §7

ST359/GCB = assay: DLBCL PDX model; assay type: in vivo, mouse; conditions: 11 days, QD PO, TL-895 and ibrutinib 25 mg/kg, acalabrutinib 30 mg/kg
Procedure: as §1, §2, §3, §4, §5, §6, §7

ST949/GCB = assay: DLBCL PDX model; assay type: in vivo, mouse; conditions: 14 days, QD PO, TL-895 and ibrutinib 25 mg/kg, acalabrutinib 30 mg/kg
Procedure: as §1, §2, §3, §4, §5, §6, §7

DLBCL = conditions: cited from earlier work

Row | SMILES | %ΔT/ΔC (LY0257/ABC) | %ΔT/ΔC (LY11212/GCB) | %ΔT/ΔC (LY12638/GCB) | %ΔT/ΔC (LY13005/ABC) | %ΔT/ΔC (LY2214/Unc) | %ΔT/ΔC (LY2264/ABC) | %ΔT/ΔC (LY2298/ABC) | %ΔT/ΔC (LY2318/ABC) | %ΔT/ΔC (LY2345/ABC) | %ΔT/ΔC (LY3604/ABC) | %ΔT/ΔC (ST118B/ABC) | %ΔT/ΔC (ST1361/GCB) | %ΔT/ΔC (ST1735B/GCB) | %ΔT/ΔC (ST2078/GCB) | %ΔT/ΔC (ST23497/GCB) | %ΔT/ΔC (ST2761B/GCB) | %ΔT/ΔC (ST2902/GCB) | %ΔT/ΔC (ST2963/GCB) | %ΔT/ΔC (ST359/GCB) | %ΔT/ΔC (ST949/GCB) | other results
1 | CC#CC(=O)N1CCC[C@H]1c1nc(-c2ccc(C(=O)Nc3ccccn3)cc2)c2c(N)nccn12 [Acalabrutinib] | 54^M % | 126% | 262% | 64^V % | 63% | 48^V % | 27^V,I % | 102% | 108% | 36^V % | 104% | 74^V % | 80% | 115^I % | 100% | 94% | 85% | 116% | 54% | 72% | Combined overall response rate (ORR) (DLBCL; patients with either ABC- or GCB-DLBCL): 24%
2 | C=CC(=O)N1CCC[C@@H](n2nc(-c3ccc(Oc4ccccc4)cc3)c3c(N)ncnc32)C1 [Ibrutinib] | 88^M % | 171% | 121% | 71^M % | 77% | 74^M % | 69^A % | 86% | 118% | 38^V % | 90% | 65^V % | 75% | 75^A % | 95% | 71% | 92% | 81% | 62% | 86% | ORR (DLBCL; combined with R-ICE, patients with GCB-DLBCL): 90%; Reported response rate (DLBCL; patients with ABC-DLBCL): 37%; Reported response rate (DLBCL; patients with GCB-DLBLC): 5%; ORR (DLBCL; patients with wild type CD79B ABC-DLBCL): 31%
3 | C=CC(=O)N1CCC(F)(CNc2ncnc(N)c2-c2ccc(Oc3ccccc3)cc2)CC1 [TL-895] | 45^V,I,A % | 115% | 84% | 43^V,I % | 93% | 37^V,I % | 38% | 104% | 120% | 32^V % | 68% | 60^V % | 101% | 114% | 101% | 90% | 104% | 106% | 71% | 83% | Complete responses in patients with DLBCL (DLBCL; preliminary evidence): 1
